The assay deals with T1, Full length human recombinant HDAC6 protein (Homo sapiens, UniProt Q9UBN7).
T1 sequence (Q9UBN7 1-1215): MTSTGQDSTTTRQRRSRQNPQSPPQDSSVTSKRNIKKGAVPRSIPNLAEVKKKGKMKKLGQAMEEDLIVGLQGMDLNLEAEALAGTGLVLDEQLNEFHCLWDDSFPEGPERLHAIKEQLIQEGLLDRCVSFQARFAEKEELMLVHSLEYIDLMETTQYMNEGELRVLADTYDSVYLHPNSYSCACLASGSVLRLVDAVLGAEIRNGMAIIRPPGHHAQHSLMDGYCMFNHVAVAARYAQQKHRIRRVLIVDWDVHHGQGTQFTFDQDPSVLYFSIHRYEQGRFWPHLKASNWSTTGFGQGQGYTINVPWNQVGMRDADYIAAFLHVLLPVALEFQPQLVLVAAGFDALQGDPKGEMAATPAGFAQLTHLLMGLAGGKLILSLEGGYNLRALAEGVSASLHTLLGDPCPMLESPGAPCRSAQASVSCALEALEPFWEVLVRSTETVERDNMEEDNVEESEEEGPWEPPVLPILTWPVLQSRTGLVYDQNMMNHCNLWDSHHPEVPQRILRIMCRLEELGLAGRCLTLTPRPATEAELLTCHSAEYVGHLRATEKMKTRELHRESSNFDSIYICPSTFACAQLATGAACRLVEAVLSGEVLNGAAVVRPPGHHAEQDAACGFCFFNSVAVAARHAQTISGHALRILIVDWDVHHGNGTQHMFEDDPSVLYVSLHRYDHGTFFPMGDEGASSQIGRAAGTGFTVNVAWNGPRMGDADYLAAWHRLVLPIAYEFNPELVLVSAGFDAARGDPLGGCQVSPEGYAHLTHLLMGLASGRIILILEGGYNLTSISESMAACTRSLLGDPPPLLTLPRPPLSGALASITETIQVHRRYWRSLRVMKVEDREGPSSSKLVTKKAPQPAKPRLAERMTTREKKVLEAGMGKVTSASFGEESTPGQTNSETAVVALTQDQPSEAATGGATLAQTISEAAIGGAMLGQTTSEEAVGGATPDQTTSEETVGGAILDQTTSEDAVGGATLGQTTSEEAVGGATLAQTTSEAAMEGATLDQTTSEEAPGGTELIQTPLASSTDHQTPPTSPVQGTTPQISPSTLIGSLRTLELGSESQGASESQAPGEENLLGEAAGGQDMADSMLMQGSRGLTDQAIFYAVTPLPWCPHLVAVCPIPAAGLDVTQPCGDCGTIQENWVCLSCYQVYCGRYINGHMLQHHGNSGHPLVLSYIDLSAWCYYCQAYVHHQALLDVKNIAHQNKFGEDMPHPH
The assay can be described thus: In vitro histone deacetylase assay: enzymatic HDAC6 electrophoretic mobility shift assay. The format is biochemical. The note with it: 1 nM enzyme, 2 μM peptide substrate RHKK(Ac)-NH2, 25° C., 12 concentrations; read-out: Inhibitory Concentration (IC50) Values against HDAC6, Activity Range. (In general: In EMSA bound probe runs differently from free probe, usually more slowly.)

As for `O=C(NO)c1ccc2c(c1)OCCN(C(=O)c1ccc3c(c1)OCO3)C2` [4-(benzo[d][1,3]dioxole-5-carbonyl)-N-hydroxy-2,3,4,5-tetrahydrobenzo[f][1,4]oxazepine-8-carboxamide], the IC50 is no more than 100 nM.
On to `C[C@H]1COc2cc(C(=O)NO)ccc2CN1C(=O)C1CC(OCc2ccccc2)C1` (stereo partly drawn) [(S)-4-(3-(benzyloxy)cyclobutane-1-carbonyl)-N-hydroxy-3-methyl-2,3,4,5-tetrahydrobenzo[f][1,4]oxazepine-8-carboxamide], for which the IC50 was no more than 100 nM.
The value for `O=C(NO)c1ccc2c(c1)OCCN(C(=O)CN1CCOCC1)C2` [N-hydroxy-4-(2-morpholinoacetyl)-2,3,4,5-tetrahydrobenzo[f][1,4]oxazepine-8-carboxamide] was greater than 500 nM; that for `C[C@H]1COc2cc(C(=O)NO)ccc2CN1C(=O)c1nc2ccccc2[nH]1` [(S)-4-(1H-benzo[d]imidazole-2-carbonyl)-N-hydroxy-3-methyl-2,3,4,5-tetrahydrobenzo[f][1,4]oxazepine-8-carboxamide] was no more than 100 nM.
The value for `CC(C)[C@H]1COc2cc(C(=O)NO)ccc2CN1C(=O)C1(C)CCC1` [(S)-N-hydroxy-3-isopropyl-4-(1-methylcyclobutane-1-carbonyl)-2,3,4,5-tetrahydrobenzo[f][1,4]oxazepine-8-carboxamide] was no more than 100 nM.
The result for `COCC1(C(=O)N2CCOc3cc(C(=O)NO)ccc3C2)CC1` [N-hydroxy-4-(1-(methoxymethyl)cyclopropane-1-carbonyl)-2,3,4,5-tetrahydrobenzo[f][1,4]oxazepine-8-carboxamide] reads no more than 100 nM.
`O=C(NO)c1ccc2c(c1)OCCN(C(=O)CCO)C2` [N-hydroxy-4-(3-hydroxypropanoyl)-2,3,4,5-tetrahydrobenzo[f][1,4]oxazepine-8-carboxamide]: the IC50 is greater than 500 nM.
The value for `CO[C@H]1CC[C@@H](C(=O)N2CCOc3cc(C(=O)NO)ccc3[C@@H]2C)CC1` (single isomer, unassigned) was no more than 100 nM; that for `COc1ccc(OCC(=O)N2CCOc3cc(C(=O)NO)ccc3C2)cc1` [N-hydroxy-4-(2-(4-methoxyphenoxy)acetyl)-2,3,4,5-tetrahydrobenzo[f][1,4]oxazepine-8-carboxamide] was no more than 100 nM.
The result for `C[C@@H](C(=O)N1CCOc2cc(C(=O)NO)ccc2C1)c1ccccc1` [(R)-N-hydroxy-4-(2-phenylpropanoyl)-2,3,4,5-tetrahydrobenzo[f][1,4]oxazepine-8-carboxamide] reads greater than 500 nM; that for `CC(C)(C)OC(=O)N1CCC2(CC1)OC(C(=O)N1CCOc3cc(C(=O)NO)ccc3C1)c1ccccc12` (stereo not shown) [tert-butyl 3-(8-(hydroxycarbamoyl)-2,3,4,5-tetrahydrobenzo[f][1,4]oxazepine-4-carbonyl)-3H-spiro[isobenzofuran-1,4′-piperidine]-1′-carboxylate], 100 to 500 nM; that for `C[C@H]1COc2cc(C(=O)NO)ccc2CN1C(=O)C1CCS(=O)(=O)CC1` [(S)-4-(1,1-dioxidotetrahydro-2H-thiopyran-4-carbonyl)-N-hydroxy-3-methyl-2,3,4,5-tetrahydrobenzo[f][1,4]oxazepine-8-carboxamide], no more than 100 nM.
On to `O=C(NO)c1ccc2c(c1)OCCN(C(=O)C1CCC3(CCNCC3)C1)C2` (stereo not shown) [N-hydroxy-4-(8-azaspiro[4.5]decane-2-carbonyl)-2,3,4,5-tetrahydrobenzo[f][1,4]oxazepine-8-carboxamide], for which the IC50 is no more than 100 nM.
The result for `Cn1cc(C(=O)N2CCOc3cc(C(=O)NO)ccc3C2)ccc1=O` [N-hydroxy-4-(1-methyl-6-oxo-1,6-dihydropyridine-3-carbonyl)-2,3,4,5-tetrahydrobenzo[f][1,4]oxazepine-8-carboxamide] reads greater than 500 nM; that for `O=C(NO)c1ccc2c(c1)OCCN(C(=O)[C@H]1CCOC1)C2` [(S)-N-hydroxy-4-(tetrahydrofuran-3-carbonyl)-2,3,4,5-tetrahydrobenzo[f][1,4]oxazepine-8-carboxamide], no more than 100 nM; that for `COc1ccc(CC(=O)N2CCOc3cc(C(=O)NO)ccc3C2)cc1` [N-hydroxy-4-(2-(4-methoxyphenyl)acetyl)-2,3,4,5-tetrahydrobenzo[f][1,4]oxazepine-8-carboxamide], greater than 500 nM.
With `C[C@H]1COc2cc(C(=O)NO)ccc2CN1C(=O)[C@H]1CCOC1` [(S)-N-hydroxy-3-methyl-4-((S)-tetrahydrofuran-3-carbonyl)-2,3,4,5-tetrahydrobenzo[f][1,4]oxazepine-8-carboxamide], the IC50 is no more than 100 nM.
Regarding `C[C@H]1COc2cc(C(=O)NO)ccc2CN1C(=O)[C@@H]1CCOC1` [(S)-N-hydroxy-3-methyl-4-((R)-tetrahydrofuran-3-carbonyl)-2,3,4,5-tetrahydrobenzo[f][1,4]oxazepine-8-carboxamide], the IC50 was no more than 100 nM.
In the case of `COC1(C(=O)N2Cc3ccc(C(=O)NO)cc3OC[C@@H]2C)CCCCC1` [(S)-N-hydroxy-4-(1-methoxycyclohexane-1-carbonyl)-3-methyl-2,3,4,5-tetrahydrobenzo[f][1,4]oxazepine-8-carboxamide], the IC50 was no more than 100 nM.
As to `C[C@H]1COc2cc(C(=O)NO)ccc2CN1C(=O)C1CCC1` [(S)-4-(cyclobutanecarbonyl)-N-hydroxy-3-methyl-2,3,4,5-tetrahydrobenzo[f][1,4]oxazepine-8-carboxamide], the IC50 is no more than 100 nM.
The value for `O=C(NO)c1cnc2c(n1)OCCN(C(=O)C1CCOCC1)C2` [N-hydroxy-8-(tetrahydro-2H-pyran-4-carbonyl)-6,7,8,9-tetrahydropyrazino[2,3-f][1,4]oxazepine-3-carboxamide] was 100 to 500 nM; that for `C[C@H]1COc2cc(C(=O)NO)ccc2CN1C(=O)C(C)(C)c1cccnc1` [(S)-N-hydroxy-3-methyl-4-(2-methyl-2-(pyridin-3-yl)propanoyl)-2,3,4,5-tetrahydrobenzo[f][1,4]oxazepine-8-carboxamide] was no more than 100 nM; that for `CC(C)COCC(=O)N1CCOc2cc(C(=O)NO)ccc2C1` [N-hydroxy-4-(2-isobutoxyacetyl)-2,3,4,5-tetrahydrobenzo[f][1,4]oxazepine-8-carboxamide] was greater than 500 nM.
For the compound `COC(C)(C(=O)N1CCOc2cc(C(=O)NO)ccc2C1)c1ccccc1` (stereo not shown) [N-hydroxy-4-(2-methoxy-2-phenylpropanoyl)-2,3,4,5-tetrahydrobenzo[f][1,4]oxazepine-8-carboxamide], the IC50 is 100 to 500 nM.
The value for `COc1ccc(CC(=O)N2CCOc3ccc(C(=O)NO)cc3C2)cc1` [N-hydroxy-4-(2-(4-methoxyphenyl)acetyl)-2,3,4,5-tetrahydrobenzo[f][1,4]oxazepine-7-carboxamide] was greater than 500 nM; that for `COc1ccc(C(C)(C)C(=O)N2CCOc3cc(C(=O)NO)ccc3C2)cc1OC` [4-(2-(3,4-dimethoxyphenyl)-2-methylpropanoyl)-N-hydroxy-2,3,4,5-tetrahydrobenzo[f][1,4]oxazepine-8-carboxamide] was 100 to 500 nM; that for `C[C@H]1COc2cc(C(=O)NO)ccc2CN1C(=O)[C@@H]1CC2CCC1O2` (stereo partly drawn) [(3S)-4-((2R)-7-oxabicyclo[2.2.1]heptane-2-carbonyl)-N-hydroxy-3-methyl-2,3,4,5-tetrahydrobenzo[f][1,4]oxazepine-8-carboxamide] was no more than 100 nM.
`COCCC(C(=O)N1CCOc2cc(C(=O)NO)ccc2C1)c1ccccn1` (stereo not shown) [N-hydroxy-4-(4-methoxy-2-(pyridin-2-yl)butanoyl)-2,3,4,5-tetrahydrobenzo[f][1,4]oxazepine-8-carboxamide]: the IC50 fell in the range of 100 to 500 nM.
The result for `CC(C)(C)C(=O)N1CCOc2cc(C(=O)NO)ccc2C1` [N-hydroxy-4-pivaloyl-2,3,4,5-tetrahydrobenzo[f][1,4]oxazepine-8-carboxamide] reads no more than 100 nM; that for `O=C(NO)c1ccc2c(c1)OCCN(C(=O)c1ccc3[nH]ccc3c1)C2` [N-hydroxy-4-(1H-indole-5-carbonyl)-2,3,4,5-tetrahydrobenzo[f][1,4]oxazepine-8-carboxamide], no more than 100 nM.
Consider `COC(C(=O)N1CCOc2cc(C(=O)NO)ccc2C1)c1ccccc1` (stereo not shown) [N-hydroxy-4-(2-methoxy-2-phenylacetyl)-2,3,4,5-tetrahydrobenzo[f][1,4]oxazepine-8-carboxamide], for which the IC50 was 100 to 500 nM.

The values above are taken from US11891365B2, “3-alkyl-4-amido-bicyclic [4,5,0] hydroxamic acids as HDAC inhibitors” (Valo Health, Inc., priority 2015, dated 2024).
